These results are taken from patent US20250154250A1, “CEACAM5 ADC-ANTI-PD1/PD-L1 COMBINATION THERAPY” (SANOFI, priority 2021, published 2025).

The test system of series [1] is subcutaneous colon MC38 syngeneic tumor. The series is described as follows: subcutaneous colon MC38 syngeneic tumor model. Particulars: for Drug death (day) / Mean body weight change in % at nadir (day) / Regression CR / Regression PR: n=6; for tolerability of treatments: doses lower than maximal tolerated dose (MTD). The protocol: […] Control groups were left untreated. The doses of the compounds used are given in mg/kg.
For the evaluation of anti-tumor activity, animals were weighed, and tumors were measured by caliper 2 times weekly. A dosage producing a 20% weight loss at nadir (mean of group) or 10% or more drug deaths, was considered an excessively toxic dosage. Animal body weights included the tumor weights. Tumor volumes were calculated using the formula mass (mm^3)=[length (mm)×width (mm)×width (mm)]/2. The primary efficacy end points are ΔT/ΔC, percent median regression, partial and complete regressions (PR and CR).
Changes in tumor volume for each treated (T) and control (C) are calculated for each tumor by subtracting the tumor volume on the day of first treatment (staging day) from the tumor volume on the specified observation day. The median ΔT is calculated for the treated group and the median ΔC is calculated for the control group. Then the ratio ΔT/ΔC is calculated and expressed as a percentage: ΔT/ΔC=(delta T/delta C)×100.
The dose is considered as therapeutically active when ΔT/ΔC is lower than 40% and very active when ΔT/ΔC is lower than 10%.
% tumor regression is defined as the % of tumor volume decrease in the treated group at a specified observation day compared to its volume on the first day of first treatment.
At a specific time point and for each animal, % regression is calculated. The median % regression is then calculated for the group:
Partial regression (PR): Regressions are defined as partial if the tumor volume decreases to 50% of the tumor volume at the start of treatment.
Complete regression (CR): Complete regression is achieved when tumor volume=0 mm^3 (CR is considered when tumor volume cannot be recorded).
Control groups were left untreated. The doses of the compounds used are given in mg/kg.
See above (Ex 2) for the conditions of anti-tumor activity and toxicity evaluation.

For series [2], the system named is NSQ NSCLC with tumor CEACAM5 expression.
A further series deals with CEACAM7 (Homo sapiens, UniProt Q14002).
Chain of CEACAM7 (Q14002 36-242): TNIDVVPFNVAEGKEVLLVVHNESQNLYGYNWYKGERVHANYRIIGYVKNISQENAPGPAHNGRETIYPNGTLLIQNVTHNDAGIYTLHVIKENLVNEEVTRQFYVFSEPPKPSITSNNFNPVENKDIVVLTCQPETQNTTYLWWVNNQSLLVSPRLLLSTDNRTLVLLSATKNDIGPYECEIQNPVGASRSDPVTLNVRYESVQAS
A further series addresses CEACAM8 (Homo sapiens, UniProt P31997).
A further series has as its target CEACAM1 (Homo sapiens, UniProt P13688).
Another series addresses CEACAM6 (Homo sapiens, UniProt P40199).
The test system of series [3] is human primary colon and stomach tumors. The note with it: mice bearing human primary colon and stomach tumors; see WO 2014/079886; cited from earlier work.
[4] abbreviates: antibody as single agent 10 mg/kg IV (total 40).
The mark [5] stands for this setting: huMAb2-3-SPDB-DM4 15 mg/kg IV day 10, alone or + antibody 10 mg/kg IV.
[6] abbreviates: huMAb2-3-SPDB-DM4 25 mg/kg IV day 10, alone or + antibody 10 mg/kg IV.

Like-named read-outs stand apart in the source and are kept apart here. A value given as a limit tells only on which side of the number the result lay.

Chain of CEACAM1 (P13688 35-526): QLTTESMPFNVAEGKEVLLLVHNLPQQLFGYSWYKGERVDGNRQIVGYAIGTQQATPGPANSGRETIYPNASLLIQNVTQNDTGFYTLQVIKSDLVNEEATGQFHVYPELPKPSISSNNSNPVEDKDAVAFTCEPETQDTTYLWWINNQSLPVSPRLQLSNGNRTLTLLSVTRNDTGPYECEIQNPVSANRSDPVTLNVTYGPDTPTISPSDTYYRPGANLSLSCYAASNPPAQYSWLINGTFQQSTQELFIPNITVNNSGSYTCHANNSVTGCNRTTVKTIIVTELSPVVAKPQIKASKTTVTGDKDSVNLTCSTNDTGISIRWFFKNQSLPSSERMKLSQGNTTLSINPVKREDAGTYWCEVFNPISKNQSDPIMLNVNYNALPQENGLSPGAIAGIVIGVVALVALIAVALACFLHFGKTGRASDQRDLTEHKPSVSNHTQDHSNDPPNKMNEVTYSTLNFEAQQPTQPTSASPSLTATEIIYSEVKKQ
Chain of CEACAM6 (P40199 35-320): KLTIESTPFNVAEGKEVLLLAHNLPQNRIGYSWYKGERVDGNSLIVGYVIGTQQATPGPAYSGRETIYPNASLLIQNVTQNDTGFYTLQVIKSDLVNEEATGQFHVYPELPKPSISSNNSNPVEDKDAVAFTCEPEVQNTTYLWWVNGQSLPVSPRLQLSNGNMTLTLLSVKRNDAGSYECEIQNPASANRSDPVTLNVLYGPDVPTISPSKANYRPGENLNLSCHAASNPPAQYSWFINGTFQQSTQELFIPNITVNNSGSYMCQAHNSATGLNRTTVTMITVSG
Chain of CEACAM8 (P31997 35-320): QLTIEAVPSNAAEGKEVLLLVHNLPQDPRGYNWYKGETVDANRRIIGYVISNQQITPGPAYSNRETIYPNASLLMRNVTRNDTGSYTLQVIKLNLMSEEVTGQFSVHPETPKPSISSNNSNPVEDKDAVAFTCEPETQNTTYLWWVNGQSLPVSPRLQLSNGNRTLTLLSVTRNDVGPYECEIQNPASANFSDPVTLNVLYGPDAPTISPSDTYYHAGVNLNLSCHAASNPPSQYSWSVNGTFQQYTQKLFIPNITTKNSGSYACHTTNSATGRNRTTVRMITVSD

Consider “Atezolizumab [anti-mu/huPD-L1 (Atezolizumab), reference compound]”, for which, in series [1] (setting [4]), the Biological comments result is “Marginally”, the “Drug death (day)” value was 0/6, the “Mean body weight change in % at nadir (day)” value (shortened to “Mean body weight change in %”) is reported as “+2.08%” and the “Regression CR” value is reported as 1/6. Moreover, the “Regression PR” value in series [1] (setting [4]) was 1/6. Also, the Biological comments entry in series [1] (antibody as single agent 10 mg/kg IV (total 40), listed as anti-mu/PD-L1 mAb) is recorded as “marginally active”. Also, the tolerability of treatments result in series [1] is “well tolerated and did not induce toxicity”.
Regarding tusamitamab ravtansine, the “overall response rate per RECIST 1.1” value in series [2] (28 heavily pre-treated patients, tumor CEACAM5 expression ≥1% and <5 0%) was 7.1%. The “overall response rate per RECIST 1.1” value in series [2] (64 heavily pre-treated patients, tumor CEACAM5 expression ≥50%) is reported as 20.3%. In addition, the tolerability of treatments result in series [1] was “well tolerated and did not induce toxicity”. In series [1] (setting [5]), the Biological comments result is recorded as “Inactive”, the “Median ΔT/ΔC in % (D 22)” value is listed as 46%, the “Drug death (day)” value was 0/6 and the “Mean body weight change in %” value is recorded as “+3.95%”. Also, in series [1] (setting [5]), the “Regression CR” value is 0/6 and the “Regression PR” value is reported as 0/6. In series [1] (setting [6]), the Biological comments entry is listed as “highly active”, the “Median ΔT/ΔC in % (D 22)” value is reported as less than 0%, the “Drug death (day)” value was 0/6 and the “Mean body weight change in %” value is listed as “+1.30%”. Moreover, in series [1] (setting [6]), the “Regression CR” value is listed as 1/6 and the “Regression PR” value is listed as 4/6. In addition, at CEACAM7, the “recognition of CEACAM7” value is “does not recognize”. Besides, the “recognition of CEACAM8” value on CEACAM8 was “does not recognize”. Moreover, the “recognition of CEACAM1” value on CEACAM1 is listed as “does not recognize”. Moreover, at CEACAM6, the “recognition of CEACAM6” value is reported as “does not recognize”. Further, the “tumor growth in vivo” value in series [3] was “markedly inhibit tumor growth”.
